Source: patent US20260325500A1, “METHODS AND COMPOSITIONS FOR TREATING ACUTE STRESS DISORDER” (BioXcel Therapeutics, Inc., priority 2022, published 2026)
Structures can show the parent of a compound that is named as a salt. Marks after values point to notes of the source that are not given here.

Assays:
[1] = test system: rat forced swim test model (depressive-like behavior); experiment: Forced swim test in dark phase (Example 4); format: in vivo, Sprague Dawley rats; details: 1 mg/kg, i.m.; versus vehicle saline
Source text: Animal groups: Male Sprague Dawley (SD) rats (8-10 weeks old) were grouped housed 2 per cage in standard animal cages with facilities for pelleted food and drinking water in polycarbonate bottle with stainless steel sipper tubes. During the experimental period, animals were housed in a single experimental room. Rats were distributed in 7 different experimental groups with 9-12 rats per group as illustrated in Table 8. Animals were distributed to different groups based on body weight data. Each experimental group was also coded so that the experimenter became unaware of the true experimental group at the time FST trial.
Animals were housed in an environment-controlled room at 22±3° C. and relative humidity of 30 to 70 percent. During the study, 12/12 light/dark cycles were maintained. Lights of the acclimatization area were switched off at 06:00 PM. All experiments were carried out at ambient temperature under dark phase of lighting (between 06:00 PM to 06:00 AM). Adequate fresh air supply of 12-15 air changes/hour was maintained in the experimental room. The maximum and minimum temperature and relative humidity in the experimental rooms was recorded once daily. The relative humidity in the experimental room was calculated daily from dry and wet bulb temperature recordings.
Swim 1 was carried out between 18:30 to 21:30.
Swim 2 was carried out between 19:30 to 21:30. Animals were administered test compounds from 18:30 onwards in staggered manner 60 minutes before FST 2.
Forced swim test was carried out in dark phase
On Day 1, animals were subjected to forced swim test training for 15 minutes (Swim 1) and on Day 2, Swim 2 was carried out post treatment.
On day 2 animals were dosed with respective treatment 60 min prior to performing FST.
Forced swim test (Swim 2) was scored manually with no video recording.
Forced swim test (FST), was used to study the depressive-like behavior in rodents. The test was carried out in transparent cylindrical glass containers measuring 46 cm in height and 20 cm in diameter.
There were 2 swim sessions, 24 h apart. The first session, Swim 1 was the pretest/training stage (15 min) and the second session, Swim 2, was the test stage (8 min).
In swim 2, first 1-minute data was excluded from analysis and rest 7 minutes data was considered. In 7 minutes, data, it was divided 5 minutes and 2 minute.
Twenty-four hours after the start of Swim 1, the test swim (Swim 2) was carried out.
Rat was placed in the water-filled cylinder for 8 min (Swim 2).
The duration of time spent immobile, swimming, and climbing was observed by an observer blind to the treatment group.
Immobility period: A rat was judged to be immobile when it remained floating in the water without struggling and was making only those movements necessary to keep its head above water.
Statistical analysis: One Way ANOVA, Dunnet's multiple comparison test was applied with respect to vehicle saline and Tukey's multiple comparison test was applied to compare the data in between the groups using GraphPad Prism version 9 software.

[2] = test system: CCK-4 induced panic anxiety in rats; experiment: Elevated plus maze, CCK-4 induced panic anxiety (Example 8); format: in vivo, Wistar rats; details: for Entries, % increase as compared to CCK-4/Vehicle / Entries, Mean ± SEM / Time, % increase as compared to CCK-4/Vehicle / Time, Mean ± SEM: CCK4 0.2 mg/kg i.p.
Source text: Rationale: In the past two decades panic induction with cholecystokinin-tetrapeptide (CCK-4) as an experimental model of human anxiety has become a focus of intensive research. CCK-4 is a synthetic analog of the endogenous neuropeptide cholecystokinin (CCK), which has been found in different brain regions. Particularly, high concentrations of CCK have been detected in regions that have been implicated in the mediation of panic attacks such as the cerebral cortex, amygdala, hippocampus, and brainstem nuclei. CCK-4 dose dependently induces panic attacks in healthy controls. Thus, CCK-4 has been postulated to fulfil the criteria for an ideal and valid panicogenic agent. […] Therefore, the CCK-4 challenge paradigm can serve as a useful tool to evaluate the anti-panic potential of novel anxiolytic compounds.
Animal groups: Male Wistar Rats were purchased at a body weight of 150 g and reached a body weight of about 220 g at the time of use. Animals were distributed in 6 different experimental groups with 12 […] per group as illustrated in Table 11. Each experimental group was also coded so that the experimenter became unaware of the true experimental group at the time EPM trial.
Study drugs: All compounds/drugs were prepared in saline (0.9% NaCl).
CCK-4 was prepared at a solution of 0.2 mg/ml which when injected i.p. at a dosage volume of 1 ml/kg results in a dose of 0.2 mg/kg.
Diazepam was prepared at a solution of 1 mg/ml which when injected i.p. at a dosage volume of 1 ml/kg results in a dose of 1 mg/kg.
Latrepirdine was prepared at concentrations of 2.5, 7.5, 25 and 37.5 mg/ml which when injected i.m. at a volume of 100 μL for a rat of 250 g results in doses of 1, 3, 10 and 15 mg/kg respectively.
Study design and dosing: The rats were randomly assigned to one of the different experimental groups. Each animal was identified by its group name, cage number, series (day) of experiment, and a number (from 1 to 4) written with permanent ink on its tail. They were handled by an experimenter for about 3 min each day during 1 week prior to the day of EPM trial.
The apparatus is a PVC maze covered with Plexiglas and subdivided into four equal exploratory arms (40×10 cm), which are all interconnected by a small platform (10×10 cm). The apparatus is placed 65 cm above the floor. Two arms are opened, and two others are closed with wall (high: 10 cm).
After compound administration, rat is placed on the platform opposite a closed arm. The number of entries and the time spent in each arm are recorded during a 5 min period. The animal is considered as entered in an arm when it places its four paws in the arm.
Statistical analysis: Data was analyzed using One-Way ANOVA followed by multiple comparison with Dunnett's post-hoc test. All statistical analyses were performed using GraphPad Prism software package (Version 9) and p value below 0.05 was considered as significant.

[3] = 1-15 mg/kg i.m., CCK-4 treated rats

Row | SMILES | increase in swimming time [1] | Entries, % increase as compared to CCK-4/Vehicle ([2]; 1 mg/kg i.m.) | Entries, Mean ± SEM ([2]; 1 mg/kg i.m.) | Time, % increase as compared to CCK-4/Vehicle ([2]; 1 mg/kg i.m.) | Time, Mean ± SEM ([2]; 1 mg/kg i.m.) | Entries, % increase as compared to CCK-4/Vehicle ([2]; 3 mg/kg i.m.) | Entries, Mean ± SEM ([2]; 3 mg/kg i.m.) | Time, % increase as compared to CCK-4/Vehicle ([2]; 3 mg/kg i.m.) | Time, Mean ± SEM ([2]; 3 mg/kg i.m.) | Entries, % increase as compared to CCK-4/Vehicle ([2]; 10 mg/kg i.m.) | Entries, Mean ± SEM ([2]; 10 mg/kg i.m.) | Time, % increase as compared to CCK-4/Vehicle ([2]; 10 mg/kg i.m.) | Time, Mean ± SEM ([2]; 10 mg/kg i.m.) | Entries, % increase as compared to CCK-4/Vehicle ([2]; 15 mg/kg i.m.) | Entries, Mean ± SEM ([2]; 15 mg/kg i.m.) | Time, % increase as compared to CCK-4/Vehicle ([2]; 15 mg/kg i.m.) | Time, Mean ± SEM ([2]; 15 mg/kg i.m.) | dose with the greatest effect on entries and time in open arms [2, 3] | number of entries to and time spent in the open arms, significance [2, 3]
1 | Cc1ccc2c(c1)c1c(n2CCc2ccc(C)nc2)CCN(C)C1 [latrepirdine dihydrochloride hydrate] | 9.8% | (47.37) % | 2.8 ± 0.4 n | (83.33) % | 24.2 ± 4.7 s | (31.58) % | 2.5 ± 0.2 n | (98.48) % | 26.2 ± 3.3 s | (73.68) * % | 3.3 ± 0.3 n | (158.33) ** % | 34.1 ± 3.4 s | (126.32) *** % | 4.3 ± 0.4 n | (266.67) **** % | 48.4 ± 5.3 s | – | –
2 | Cc1ccc2c(c1)c1c(n2CCc2ccc(C)nc2)CCN(C)C1 [latrepirdine, 2,8-dimethyl-5-[2-(6-methylpyridin-3-yl)ethyl]-3,4-dihydro-1H-pyrido[4,3-b]indole] | – | – | – | – | – | – | – | – | – | – | – | – | – | – | – | – | – | 15 mg/kg | significant at the doses of 10 and 15 mg/kg
